For the test, the system named is C. albicans. The test is described as follows: systemic mouse candidiasis, in-vivo antimycotic activity. The settings on record: male CFW1 mice infected i.v. with 3×10^5 CFU C. albicans; 50 mg/kg 2 × daily p.o. for 5 days; survival up to 10th day p.i.; 10 animals per group. As for the experimental part:
Testing of in-vivo activity
The test model for antimycotic in-vivo actions used was systemic mouse candidias is:
Male CFW1 mice of weight 20 g were infected in the tail vein by injection of 3×10^5 CFU of C. albicans per animal.
Untreated control animals died completely within one week post-infectionem (p.i.) of a generalized candidiasis with granuloma formation in the kidneys. For activity testing, the preparations, dissolved in a 0.2% strength aqueous glucose-agar solution, were administered orally by stomach tube to the infected animals twice daily.
The daily doses were 2×50 mg/kg of body weight (BW), the treatment period was 5 days.
The survival rates of the treated animals were noted daily up to the 10th day p.i. In the case of the untreated control animals, no animals survived at this point.
For the preparations, 10 animals each were employed per dose and control group.

As to `C=C1C[C@H](NC(=O)[C@@H](NC(=O)[C@@H](N)C(C)CC)C(C)CC)[C@H](C(=O)O)C1` (relative stereo) [Example 1, (-)-1,2-cis-(2-((S)-Isoleucyl)-(S)-isoleucylamino)-4-methylenecyclopentane-1-carboxylic acid], the “Number of surviving animals” value is 8/10.

The values above are taken from patent US5663150A, “Cyclopentane-β-amino acid tripeptides” (Bayer Aktiengesellschaft, priority 1995, dated 1997).
